Measurements published in patent US4345938A, “Herbicidal 2-haloacetanilides” (Monsanto Company, priority 1980, dated 1982).
Where two headings read alike, the source gives them in different places.

Assays:
Assay type in all cases: in vivo
Echinochloa crus-galli = assay: Field transplant rice test, applied 0 DAT, EC; conditions: 0 h, read-out: Percent Inhibition, EC; for inhibition at 375 g/ha: 0.375 Kg/Ha; for inhibition at 750 g/ha: 0.75 Kg/Ha; for inhibition at 1500 g/ha: 1.5 Kg/Ha; for inhibition at 3000 g/ha: 3.0 Kg/Ha
Protocol: (§1) The test data in Table III for all compounds was obtained under identical test conditions. The weeds used in the tests herein have the following abbreviations in the tables: Echinochloa crus-galli (EC), Monochloria vaginalis (MV), Cyperus Serotinus (CS), Eleocharis Kuroguwai (EK) and Sagittaria trifolia (ST).
(§2) In further comparative tests, a preferred compound of this invention (Example 1) was tested in the field with prior art Compounds A-D. These tests were conducted under conditions reflecting herbicide application times generally favorable to all herbicides in the test. The timing of application of herbicides to transplant rice is very important, whether, as in some instances, prior to transplanting the rice; in other instances, at the time of transplanting or else after transplanting. Application times are conventionally referred to as "days before transplant" (DBT) or "days after transplant" ("DAT"). The field test data in Table IV was obtained from a test in which the herbicides were applied at the time of transplant, i.e., "0 DAT", with observations being made weekly up to six weeks after transplant ("WAT") beginning at two weeks after transplant; for illustrative and representative purposes, only the early, middle and late period observations, i.e., 2 WAT, 4 WAT and 6 WAT, are shown in Table IV. The data in Table IV is for rates of application common to all herbicides in the test, i.e., from 3.0 kg/ha (2.67 lb/A) down to 0.375 kg/ha (0.34 lb/A). All herbicides were applied at their actual or expected use rates, i.e., as granules containing 2.5% by weight herbicide for the compound of Example 1, Compounds B, C and D and 5.0% by weight for Compound A.

Monochoria vaginalis = assay: Field transplant rice test, applied 0 DAT, MV; conditions: Pontederia vaginalis, 0 h, read-out: Percent Inhibition, MV; for inhibition at 375 g/ha: 0.375 Kg/Ha; for inhibition at 750 g/ha: 0.75 Kg/Ha; for inhibition at 1500 g/ha: 1.5 Kg/Ha; for inhibition at 3000 g/ha: 3.0 Kg/Ha
Protocol: as §1, §2

Cyperus serotinus = assay: Field transplant rice test, applied 0 DAT, CS; conditions: 0 h, read-out: Percent Inhibition, CS; for inhibition at 375 g/ha: 0.375 Kg/Ha; for inhibition at 750 g/ha: 0.75 Kg/Ha; for inhibition at 1500 g/ha: 1.5 Kg/Ha; for inhibition at 3000 g/ha: 3.0 Kg/Ha
Protocol: as §1, §2

Rice = assay: Field transplant rice test, applied 9 DAT, rice injury; conditions: Oryza sativa, 216 h, read-out: Percent Inhibition, Rice; for inhibition at 375 g/ha: 0.375 Kg/Ha; for inhibition at 750 g/ha: 0.75 Kg/Ha; for inhibition at 1500 g/ha: 1.5 Kg/Ha; for inhibition at 3000 g/ha: 3.0 Kg/Ha
Protocol: as §2
(§3) In Table V are presented field data showing the relative performance of the compound of Example 1 and Compounds A-D applied 9 DAT, with observations being made weekly from 3 WAT to 7 WAT; again, for illustrative and representative purposes, only the early, middle and late period observations are reported in Table V, the herbicide rates and concentrations of active ingredients the same as is shown in Table IV.

Sagittaria trifolia = assay: Field transplant rice test, applied 9 DAT, ST; conditions: 216 h, read-out: Percent Inhibition, ST; for inhibition at 375 g/ha: 0.375 Kg/Ha; for inhibition at 750 g/ha: 0.75 Kg/Ha; for inhibition at 1500 g/ha: 1.5 Kg/Ha; for inhibition at 3000 g/ha: 3.0 Kg/Ha
Protocol: as §1, §2, §3

## CCCCOCN(C(=O)CCl)c1c(C)cccc1C(C)(C)C [Compound C, 2'-methyl-6'-tert-butyl-N-(n-butoxymethyl)-2-chloroacetanilide]
Echinochloa crus-galli; 2 WAT
  inhibition at 375 g/ha: 98%
  inhibition at 750 g/ha: 100%
  inhibition at 1500 g/ha: 100%
  inhibition at 3000 g/ha: 98%
Echinochloa crus-galli; 4 WAT
  inhibition at 375 g/ha: 100%
  inhibition at 750 g/ha: 100%
  inhibition at 1500 g/ha: 100%
  inhibition at 3000 g/ha: 100%
Echinochloa crus-galli; 6 WAT
  inhibition at 375 g/ha: 98%
  inhibition at 750 g/ha: 100%
  inhibition at 1500 g/ha: 100%
  inhibition at 3000 g/ha: 100%
Monochoria vaginalis; 2 WAT
  inhibition at 375 g/ha: 100%
  inhibition at 750 g/ha: 100%
  inhibition at 1500 g/ha: 100%
  inhibition at 3000 g/ha: 100%
Monochoria vaginalis; 4 WAT
  inhibition at 375 g/ha: 100%
  inhibition at 750 g/ha: 100%
  inhibition at 1500 g/ha: 100%
  inhibition at 3000 g/ha: 100%
Monochoria vaginalis; 6 WAT
  inhibition at 375 g/ha: 97%
  inhibition at 750 g/ha: 100%
  inhibition at 1500 g/ha: 100%
  inhibition at 3000 g/ha: 100%
Cyperus serotinus; 2 WAT
  inhibition at 375 g/ha: 93%
  inhibition at 750 g/ha: 70%
  inhibition at 1500 g/ha: 93%
  inhibition at 3000 g/ha: 95%
Cyperus serotinus; 4 WAT
  inhibition at 375 g/ha: 92%
  inhibition at 750 g/ha: 82%
  inhibition at 1500 g/ha: 99%
  inhibition at 3000 g/ha: 100%
Cyperus serotinus; 6 WAT
  inhibition at 375 g/ha: 72%
  inhibition at 750 g/ha: 77%
  inhibition at 1500 g/ha: 100%
  inhibition at 3000 g/ha: 100%
Rice; 3 WAT
  inhibition at 375 g/ha: 17%
  inhibition at 750 g/ha: 10%
  inhibition at 1500 g/ha: 18%
  inhibition at 3000 g/ha: 10%
Rice; 5 WAT
  inhibition at 375 g/ha: 8%
  inhibition at 750 g/ha: 7%
  inhibition at 1500 g/ha: 15%
  inhibition at 3000 g/ha: 5%
Rice; 7 WAT
  inhibition at 375 g/ha: 10%
  inhibition at 750 g/ha: 8%
  inhibition at 1500 g/ha: 13%
  inhibition at 3000 g/ha: 8%
Sagittaria trifolia; 3 WAT
  inhibition at 375 g/ha: 47%
  inhibition at 750 g/ha: 32%
  inhibition at 1500 g/ha: 48%
  inhibition at 3000 g/ha: 30%
Sagittaria trifolia; 5 WAT
  inhibition at 375 g/ha: 10%
  inhibition at 750 g/ha: 8%
  inhibition at 1500 g/ha: 17%
  inhibition at 3000 g/ha: 13%
Sagittaria trifolia; 7 WAT
  inhibition at 375 g/ha: 2%
  inhibition at 750 g/ha: 0%
  inhibition at 1500 g/ha: 7%
  inhibition at 3000 g/ha: 3%
